Reference: ChEMBL document CHEMBL1201862, “PubChem BioAssay data set” (2004)
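Following 48 hours of exposure in 96-well plates, responses at five concentrations were used to interpolate endpoints linearly. The concentration for 50% growth inhibition is given as GI50.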 Active and inactive are the calls of the source. Cut-off read from the data, not from the text of the source: active = GI50 up to about 1.1 µM and inactive = higher.

Tests used:
Assay in all cases: NCI-60 cell line screen, 48 h
786-0 = tested on: 786-0
RXF 393 = tested on: RXF 393
A498 = tested on: A498
SK-OV-3 = tested on: SK-OV-3
HT-29 = tested on: HT-29
EKVX = tested on: EKVX
DMS-114 = tested on: DMS-114
MOLT-4 = tested on: MOLT-4
DMS-273 = tested on: DMS-273
HCT-15 = tested on: HCT-15
M14 = tested on: M14
SK-MEL-5 = tested on: SK-MEL-5
NCI-H226 = tested on: NCI-H226
SN12C = tested on: SN12C
LOX IMVI = tested on: LOX IMVI
SNB-75 = tested on: SNB-75
SF-268 = tested on: SF-268
IGROV-1 = tested on: IGROV-1
TK-10 = tested on: TK-10
UACC-257 = tested on: UACC-257
SNB-19 = tested on: SNB-19
SR = tested on: SR
UACC-62 = tested on: UACC-62
NCI-H522 = tested on: NCI-H522
COLO 205 = tested on: COLO 205
SF-295 = tested on: SF-295
SK-MEL-2 = tested on: SK-MEL-2
OVCAR-4 = tested on: OVCAR-4
SW-620 = tested on: SW-620
OVCAR-3 = tested on: OVCAR-3
A549 = tested on: A549
LXFL 529 = tested on: LXFL 529
NCI-H23 = tested on: NCI-H23
HOP-18 = tested on: HOP-18
M19-MEL = tested on: M19-MEL
KM-20L2 = tested on: KM-20L2
CCRF-CEM = tested on: CCRF-CEM
K562 = tested on: K562
CAKI-1 = tested on: CAKI-1
DLD-1 = tested on: DLD-1
U-251 = tested on: U-251
ACHN = tested on: ACHN
HOP-62 = tested on: HOP-62
OVCAR-8 = tested on: OVCAR-8
KM12 = tested on: KM12
RPMI-8226 = tested on: RPMI-8226
OVCAR-5 = tested on: OVCAR-5
SNB-78 = tested on: SNB-78
SF-539 = tested on: SF-539
UO-31 = tested on: UO-31
NCI-H460 = tested on: NCI-H460
HL-60 = tested on: HL-60
SK-MEL-28 = tested on: SK-MEL-28
HCC 2998 = tested on: HCC 2998
Malme-3M = tested on: Malme-3M
HCT-116 = tested on: HCT-116
HOP-92 = tested on: HOP-92
XF498 = tested on: XF498
RXF 631 = tested on: RXF 631

## COc1c(-c2ccccc2)nc2ccc(Oc3ccccc3)nn12
786-0
  GI50: > 61.5 µM (inactive)
RXF 393
  GI50: > 38.8 µM (inactive)
A498
  GI50: > 41.4 µM (inactive)
SK-OV-3
  GI50: > 100 µM (inactive)
HT-29
  GI50: 37 µM (inactive)
EKVX
  GI50: > 100 µM (inactive)
DMS-114
  GI50: > 50.4 µM (inactive)
MOLT-4
  GI50: 14.1 µM (inactive)
DMS-273
  GI50: > 57.1 µM (inactive)
HCT-15
  GI50: 17.7 µM
M14
  GI50: > 59.8 µM (inactive)
SK-MEL-5
  GI50: 33.2 µM (inactive)
NCI-H226
  GI50: 29.7 µM (inactive)
SN12C
  GI50: > 56.6 µM (inactive)
LOX IMVI
  GI50: > 72.9 µM (inactive)
SNB-75
  GI50: > 57.5 µM (inactive)
SF-268
  GI50: > 56.4 µM (inactive)
IGROV-1
  GI50: > 93.8 µM (inactive)
TK-10
  GI50: > 100 µM (inactive)
UACC-257
  GI50: > 54.8 µM (inactive)
SNB-19
  GI50: > 84.5 µM (inactive)
SR
  GI50: 13.8 µM (inactive)
UACC-62
  GI50: > 69.7 µM (inactive)
NCI-H522
  GI50: > 100 µM (inactive)
COLO 205
  GI50: > 44.7 µM (inactive)
SF-295
  GI50: > 62.8 µM (inactive)
SK-MEL-2
  GI50: > 54 µM (inactive)
OVCAR-4
  GI50: > 36.3 µM (inactive)
SW-620
  GI50: > 75.7 µM (inactive)
OVCAR-3
  GI50: > 77.6 µM (inactive)
A549
  GI50: > 57.5 µM (inactive)
LXFL 529
  GI50: > 38.3 µM (inactive)
NCI-H23
  GI50: > 49 µM (inactive)
HOP-18
  GI50: > 45.5 µM (inactive)
M19-MEL
  GI50: > 64.3 µM (inactive)
KM-20L2
  GI50: > 75 µM (inactive)
CCRF-CEM
  GI50: 8.65 µM (inactive)
K562
  GI50: 14.6 µM (inactive)
CAKI-1
  GI50: > 68.4 µM (inactive)
DLD-1
  GI50: 48.3 µM (inactive)
U-251
  GI50: > 80.5 µM (inactive)
ACHN
  GI50: > 58.7 µM (inactive)
HOP-62
  GI50: > 100 µM (inactive)
OVCAR-8
  GI50: > 64 µM (inactive)
KM12
  GI50: > 54.2 µM (inactive)
RPMI-8226
  GI50: 7.6 µM (inactive)
OVCAR-5
  GI50: > 77.3 µM (inactive)
SNB-78
  GI50: > 60 µM (inactive)
SF-539
  GI50: > 59.4 µM (inactive)
UO-31
  GI50: > 61.8 µM (inactive)
NCI-H460
  GI50: 36.6 µM (inactive)
HL-60
  GI50: 7.33 µM (inactive)
SK-MEL-28
  GI50: > 51.8 µM (inactive)
HCC 2998
  GI50: > 64.9 µM (inactive)
Malme-3M
  GI50: 37.8 µM (inactive)
HCT-116
  GI50: 13.2 µM (inactive)
HOP-92
  GI50: > 100 µM (inactive)
XF498
  GI50: 23.8 µM (inactive)

## Cc1c2n(c3ccccc13)CC1CON(C)C21 (stereo not drawn)
786-0
  GI50: > 100 µM (inactive)
SK-OV-3
  GI50: > 100 µM (inactive)
DMS-114
  GI50: > 100 µM (inactive)
MOLT-4
  GI50: > 100 µM (inactive)
DMS-273
  GI50: > 100 µM (inactive)
M14
  GI50: > 100 µM (inactive)
NCI-H226
  GI50: > 100 µM (inactive)
SNB-75
  GI50: > 100 µM (inactive)
SF-268
  GI50: > 100 µM (inactive)
IGROV-1
  GI50: > 100 µM (inactive)
SR
  GI50: > 100 µM (inactive)
UACC-62
  GI50: > 100 µM (inactive)
NCI-H522
  GI50: > 100 µM (inactive)
COLO 205
  GI50: > 100 µM (inactive)
SK-MEL-2
  GI50: > 100 µM (inactive)
OVCAR-4
  GI50: > 100 µM (inactive)
LXFL 529
  GI50: > 100 µM (inactive)
NCI-H23
  GI50: > 100 µM (inactive)
M19-MEL
  GI50: > 100 µM (inactive)
CCRF-CEM
  GI50: > 100 µM (inactive)
K562
  GI50: > 100 µM (inactive)
CAKI-1
  GI50: > 100 µM (inactive)
DLD-1
  GI50: > 100 µM (inactive)
RXF 631
  GI50: > 100 µM (inactive)
HOP-62
  GI50: > 100 µM (inactive)
RPMI-8226
  GI50: > 100 µM (inactive)
SNB-78
  GI50: > 100 µM (inactive)
SF-539
  GI50: > 100 µM (inactive)
UO-31
  GI50: > 100 µM (inactive)
HL-60
  GI50: > 100 µM (inactive)
SK-MEL-28
  GI50: > 100 µM (inactive)
HCC 2998
  GI50: > 100 µM (inactive)
Malme-3M
  GI50: > 100 µM (inactive)
HCT-116
  GI50: > 100 µM (inactive)
HOP-92
  GI50: > 100 µM (inactive)

## Cn1cccc1/C=C/c1cc(Br)c(/C=C/c2cccn2C)cc1Br
786-0
  GI50: 6.12 µM (inactive)
RXF 393
  GI50: 12.6 µM (inactive)
A498
  GI50: 21 µM (inactive)
SK-OV-3
  GI50: 14.8 µM (inactive)
HT-29
  GI50: 18.6 µM (inactive)
EKVX
  GI50: 11.1 µM (inactive)
DMS-114
  GI50: 11.6 µM (inactive)
MOLT-4
  GI50: 11.6 µM (inactive)
DMS-273
  GI50: 18.5 µM (inactive)
HCT-15
  GI50: 8.75 µM
M14
  GI50: 19 µM (inactive)
SK-MEL-5
  GI50: 15.2 µM (inactive)
NCI-H226
  GI50: 12.3 µM (inactive)
SN12C
  GI50: 21 µM (inactive)
LOX IMVI
  GI50: 18.3 µM (inactive)
SNB-75
  GI50: 3.13 µM (inactive)
SF-268
  GI50: 20.5 µM (inactive)
IGROV-1
  GI50: 15.8 µM (inactive)
TK-10
  GI50: 22.5 µM (inactive)
UACC-257
  GI50: 30.6 µM (inactive)
SNB-19
  GI50: 24.2 µM (inactive)
UACC-62
  GI50: 13.8 µM (inactive)
NCI-H522
  GI50: 14.5 µM (inactive)
COLO 205
  GI50: 13.2 µM (inactive)
SF-295
  GI50: 20.9 µM (inactive)
SK-MEL-2
  GI50: 14.6 µM (inactive)
OVCAR-4
  GI50: 5.4 µM (inactive)
SW-620
  GI50: 20.9 µM (inactive)
OVCAR-3
  GI50: 16.1 µM (inactive)
A549
  GI50: 11.9 µM (inactive)
LXFL 529
  GI50: 12.3 µM (inactive)
NCI-H23
  GI50: > 10 µM (inactive)
HOP-18
  GI50: 5 µM (inactive)
M19-MEL
  GI50: 18.4 µM (inactive)
KM-20L2
  GI50: 16.3 µM (inactive)
CCRF-CEM
  GI50: 15.2 µM (inactive)
K562
  GI50: 16.7 µM (inactive)
CAKI-1
  GI50: 15.3 µM (inactive)
DLD-1
  GI50: 0.643 µM (active)
U-251
  GI50: 13 µM (inactive)
ACHN
  GI50: 10.2 µM (inactive)
RXF 631
  GI50: 13.9 µM (inactive)
OVCAR-8
  GI50: > 10 µM (inactive)
KM12
  GI50: 7.23 µM (inactive)
RPMI-8226
  GI50: 15.2 µM (inactive)
OVCAR-5
  GI50: 16.8 µM (inactive)
SF-539
  GI50: 14.6 µM (inactive)
UO-31
  GI50: 15.2 µM (inactive)
NCI-H460
  GI50: 17.9 µM (inactive)
HL-60
  GI50: 13.6 µM (inactive)
SK-MEL-28
  GI50: 15.5 µM (inactive)
HCC 2998
  GI50: 2.62 µM (inactive)
Malme-3M
  GI50: 10.4 µM (inactive)
HCT-116
  GI50: 16.3 µM (inactive)
HOP-92
  GI50: 11.7 µM (inactive)
